Read-outs that look alike come from different tables or passages of the source.
Experiment: Suppression test of Experimental Example 1: masking and harmonizing effect in a cup, four expert panelists;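 for harmonizing: score 1 means in harmony 0 indefinite and −1 not in harmony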
Conditions: for Masking: scale 0-3
Experimental: In the present invention, the selection of the above component (I), component (II) and component (III) was carried out as follows. That is, one of the pseudo body odor compositions mentioned above and a target fragrance component were mixed and left at room temperature for 30 minutes. Thereafter, evaluations of the masking and harmonizing effects to the acid odor were carried out by four expert panelists.
After 30 minutes, a hole of about 1 cm in diameter was formed in the aluminum foil and the investigations of masking effect and the harmonizing effect were carried out according to following evaluation criteria by four expert panelists.
3: Excellent in the masking.
2: Substantially excellent in the masking.
1: Slightly sensible of the body odor (sweat odor and armpit odor).
0: Sensible of the body odor (sweat odor and armpit odor) (insufficient in the masking)

[1] = 200 μl pseudo body odor composition of Example 4 and 10 μl perfume on filter papers in sealed about 500 ml cup, after 30 minutes, four expert panelists
[2] = 200 μl pseudo body odor composition of Example 4 and 10 μl perfume on filter papers in sealed about 500 ml cup, after 30 minutes, four expert panelists, scale −1 to 1

Compound	Masking [1]	Harmonizing [2]	Harmonizing
CCCCCC=O [Hexanal]	3	1	
COc1ccc(C=O)cc1 [4-Methoxybenzaldehyde]	2.5 points	1	
CCC(=CCC1CC=C(C)C1(C)C)CO (stereo not drawn) [Levosandol, 2-ethyl-4-(2,2,3-trimethyl-3-cyclopentene-1-yl)-2-butene-1-ol]	2.5 points	1	
C=CCCCCCCCCO [Example 9-Decen-1-ol, 9-Decen-1-ol]	1.5 points	0	
CC(=O)OC1CCCCC1C(C)(C)C (stereo not drawn) [2-tert-Butylcyclohexyl acetate]	2	1	
CC(C)[C@@H]1CC[C@@H](C)C[C@H]1O [l-Menthol]	1	−1	
c1ccc(Oc2ccccc2)cc1 [Diphenyl oxide]	1.5 points	0	
COc1ccc2ccccc2c1 [β-Naphthol methyl ether]			1
C=CCOC(=O)COCCC(C)C [Allyl amyl glycolate]	3	1	
CC(=O)CCc1ccc(O)cc1 [Raspberry ketone, 4-(4-hydroxyphenyl)-2-butanone]	0.5 points	−1	
CC(C)=CCCC(C)CCO (stereo not drawn) [Citronellol]	2.5 points	1	
CCCCCOC(=O)c1ccccc1O [Amyl salicylate]	1	0	
CCOC(=O)CC1(C)OCCO1 [Fraistone, ethyl (2-methyl-[1,3]dioxolane-2-yl) acetate]	1	−1	
CCCCCCCC=O [Octanal]	3	1	
CC(=O)OC(C)(C)C1CC=C(C)CC1 (stereo not drawn) [Terpinyl acetate]	2	0	
C=CC(C)(CCC=C(C)C)OC(C)=O (stereo not drawn) [Linalyl acetate]	1	−1	
CCC(=O)OC1CC2CC1C1CC=CC21 (stereo not drawn) [Cyclaprop, tricyclodecenyl propionate]	1	−1	
Methylionone	2	1	
CCCC(O)CCC1C(C)CCCC1(C)C (stereo not drawn) [Ambestol, 1-(2,2,6-trimethylcyclohexyl)-3-hexanol]	0	−1	
COc1ccc(C)cc1 [p-Cresyl methyl ether]	3	1	
CC(C)[C@@H]1CC[C@@H](C)CC1=O [Mentone]	3	1	
C/C=C/C(=O)C1=C(C)CCCC1(C)C [β-Damascone]	2	1	
CC(C)=CCCC1=CCC(C=O)CC1 (stereo not drawn) [Myracaldehyde, 4-(4-methyl-3-pentenyl)-3-cyclohexene-1-carbaldehyde]	1.5 points	0	
Cc1ccc(C(C)C)c(O)c1 [Thymol]	1	−1	
CC(=O)/C=C/C1=C(C)CCCC1(C)C [β-Ionone]	1.5 points	−1	
O=C1CCCC=CCCCCCCCCCC1 [Ambretone, 5-cyclohexadecene-l-one]	1.5 points	0	
OCCc1ccccc1 [Phenylethyl alcohol]	2.5 points	1	
CC1CC(C)(c2ccccc2)OC(C)O1 (stereo not drawn) [Floropal, 2,4,6-trimethyl-4-phenyl-1,3-dioxane]	1	0	

Compound	Masking [1]	Harmonizing [2]	Harmonizing
COC(=O)c1c(C)cc(O)c(C)c1O [Evernyl, methyl dihydroxydimethyl benzoate]	0	−1	
O=Cc1ccc2c(c1)OCO2 [Heliotropine]	1.5 points	0	
CC(C)=CC1CC(C)CCO1 (stereo not drawn) [Rose oxide]	3	1	
CC(=O)O[C@]1(C)CC[C@@]23C[C@@H]1C(C)(C)[C@@H]2CC[C@H]3C [Cedryl acetate]	0	−1	
CCOC(=O)C1C(C)CCCC1(C)C (stereo not drawn) [Thesaron, ethyl 2,2,6-trimethylcyclohexane carboxylate]	2	0	
CC(=O)OC1CC2CC1C1CC=CC21 (stereo not drawn) [Tricyclodecenyl acetate]	1.5 points	0	
CC(=O)OC(C)(C)Cc1ccccc1 [Dimethylbenzyl carbinyl acetate]	1	−1	
CCC=C(C)C(O)CCCCC (stereo not drawn) [4-Methyl-3-decene-5-ol]	2.5 points	0	
CC(C=O)Cc1ccc2c(c1)OCO2 (stereo not drawn) [Helional, α-methyl-3,4-methylene dioxyhydrocinnamic aldehyde]	1	0	
CCCCCCCCCC=O [Decanal]	1	−1	
CC(=CCC1CC=C(C)C1(C)C)CO (stereo not drawn) [Sandalmysore core, 2-methyl-4-(2,2,3-trimethyl-3-cyclopentene-1-yl)-2-butene-1-ol]	2.5 points	1	
CC(=O)OC(c1ccccc1)C(Cl)(Cl)Cl (stereo not drawn) [Rosephenone, trichloromethyl phenyl carbinyl acetate]	1.5 points	0	
isocamphyl cyclohexanol [Santalex]	0.5 points	−1	
CC(C)(O)Cc1ccccc1 [α,α-Dimethylphenylethyl, α,α-dimethyl phenylethyl alcohol]	0.5 points	−1	
CCOC(=O)C1OC1(C)c1ccccc1 (stereo not drawn) [Ethyl-3-methyl-3-phenyl glycidate]	2	0	
CC(C)=CCCC(C)=CC#N [Geranyl nitrile]	3	1	
C=CCOC(=O)COC1CCCCC1 [Cyclogalbanate, allyl cyclohexyl oxyacetate]	2.5 points	1	
O=C1CCCCCCCCOCCCCCCO1 [Oxalide, 10-oxa-16-hexadecanolide]	0	−1	
CC(=O)/C(C)=C/C1C(C)=CCCC1(C)C (stereo not drawn) [γ-Methylionone]	2	1	
C=CCOC(=O)CCC1CCCCC1 [Allyl cyclohexyl propionate]	2	0	
CC1(C)C2CCC1(C)C(O)C2 (stereo not drawn) [Borneol]	2.5 points	1	
O=c1ccc2ccccc2o1 [Coumarin]		1	
CCCCCCCCCCCC=O [Dodecanal]	1.5 points	−1	
CCCC(C)C(=O)OCC (stereo not drawn) [Ethyl-2-methyl valerate]	3	1	
CC(C)=CCCC1=CCC(C)(C=O)CC1 (stereo not drawn) [Homomyracaldehyde, 1-methyl-4-(4-methyl-3-pentenyl)-3-cyclohexen carboxy aldehyde]	1	−1	
CCCCCCCCC=O [Nonanal]	1.5 points	−1	
COC(=O)c1ccccc1 [Methyl benzoate]	3	1	

Source: patent publication US20060159639A1, “Pseudo body odor composition and perfume composition for inhibiting body odor” (priority 2003, published 2006)
